Like-named read-outs stand apart in the source and are kept apart here.
Columns and labels:
[1] = system: Penicillium decumbens α-L-rhamnosidase; test: Glycosidase inhibition, laboratory 1: α-L-rhamnosidase; assay type: biochemical; settings: methanol
Excerpt: (§1) The enzymes α-glucosidase (from yeast), β-glucosidases (from almond and bovine liver), α-galactosidase (from coffee beans), β-galactosidase (from bovine liver), α-mannosidase (from Jack bean), β-mannosidase (from snail), α-L-rhamnosidase (from Penicillium decumbens), α-L-fucosidase (from bovine kidney), trehalase (from porcine kidney), β-glucuronidases (from E. coli and bovine liver), amyloglucosidase (from A. niger), para-nitrophenyl glycosides, and various disaccharides were purchased from Sigma-Aldrich Co (St Louis, MO, USA).
(§2) Brush border membranes were prepared from the rat small intestine according to the method of Kessler et al. and were assayed at pH 6.8 for rat intestinal maltase using maltose. For rat intestinal maltase, porcine kidney trehalase, and A. niger amyloglucosidase activities, the reaction mixture contained 25 mM maltose and the appropriate amount of enzyme, and the incubations were performed for 10–30 min at 37 °C. The reaction was stopped by heating at 100 °C for 3 min. After centrifugation (600× g; 10 min), the resulting reaction mixture was added to the Glucose CII-test Wako (Wako Pure Chemical Ind., Osaka, Japan). The absorbance at 505 nm was measured to determine the amount of the released D-glucose. Other glycosidase activities were determined using an appropriate para-nitrophenyl glycoside as substrate at the optimum pH of each enzyme. The reaction mixture contained 2 mM of the substrate and the appropriate amount of enzyme. The reaction was stopped by addition of 400 mM Na2CO3. The released para-nitrophenol was measured spectrometrically at 400 nm. All reactions run in methanol.

Bacillus α-glucosidase = test: Glycosidase inhibition, laboratory 2: Bacillus α-glucosidase; assay type: biochemical; settings: water
Experimental: (§3) All enzymes and para-nitrophenyl substrates were purchased from Sigma. Enzymes were assayed at 27 °C in 0.1 M citric acid/0.2 M disodium hydrogen phosphate buffers at the optimum pH for the enzyme. The incubation mixture consisted of 10 μL enzyme solution, 10 μL of 1 mg/mL aqueous solution of extract and 50 μL of the appropriate 5 mM para-nitrophenyl substrate made up in buffer at the optimum pH for the enzyme. The reactions were stopped by addition of 70 μL 0.4 M glycine (pH 10.4) during the exponential phase of the reaction, which had been determined at the beginning using uninhibited assays in which water replaced inhibitor. Final absorbances were read at 405 nm using a Versamax microplate reader (Molecular Devices). Assays were carried out in triplicate, and the values given are means of the three replicates per assay. All reactions run in water.

almond β-glucosidase = test: Glycosidase inhibition, laboratory 2: almond β-glucosidase; assay type: biochemical; settings: water
Experimental: as §3

Jack bean α-mannosidase = target: T1, Jack bean α-mannosidase (Canavalia ensiformis, UniProt C0HJB3); test: Glycosidase inhibition, laboratory 2: Jack bean α-mannosidase; assay type: biochemical; settings: for inhibition at 400 µM: read-out: % inhibition at ~400 μM, water; for % inhibition at ~400 μM: water
T1 construct: purchased Sigma-Aldrich Co
T1 sequence (C0HJB3 1-981): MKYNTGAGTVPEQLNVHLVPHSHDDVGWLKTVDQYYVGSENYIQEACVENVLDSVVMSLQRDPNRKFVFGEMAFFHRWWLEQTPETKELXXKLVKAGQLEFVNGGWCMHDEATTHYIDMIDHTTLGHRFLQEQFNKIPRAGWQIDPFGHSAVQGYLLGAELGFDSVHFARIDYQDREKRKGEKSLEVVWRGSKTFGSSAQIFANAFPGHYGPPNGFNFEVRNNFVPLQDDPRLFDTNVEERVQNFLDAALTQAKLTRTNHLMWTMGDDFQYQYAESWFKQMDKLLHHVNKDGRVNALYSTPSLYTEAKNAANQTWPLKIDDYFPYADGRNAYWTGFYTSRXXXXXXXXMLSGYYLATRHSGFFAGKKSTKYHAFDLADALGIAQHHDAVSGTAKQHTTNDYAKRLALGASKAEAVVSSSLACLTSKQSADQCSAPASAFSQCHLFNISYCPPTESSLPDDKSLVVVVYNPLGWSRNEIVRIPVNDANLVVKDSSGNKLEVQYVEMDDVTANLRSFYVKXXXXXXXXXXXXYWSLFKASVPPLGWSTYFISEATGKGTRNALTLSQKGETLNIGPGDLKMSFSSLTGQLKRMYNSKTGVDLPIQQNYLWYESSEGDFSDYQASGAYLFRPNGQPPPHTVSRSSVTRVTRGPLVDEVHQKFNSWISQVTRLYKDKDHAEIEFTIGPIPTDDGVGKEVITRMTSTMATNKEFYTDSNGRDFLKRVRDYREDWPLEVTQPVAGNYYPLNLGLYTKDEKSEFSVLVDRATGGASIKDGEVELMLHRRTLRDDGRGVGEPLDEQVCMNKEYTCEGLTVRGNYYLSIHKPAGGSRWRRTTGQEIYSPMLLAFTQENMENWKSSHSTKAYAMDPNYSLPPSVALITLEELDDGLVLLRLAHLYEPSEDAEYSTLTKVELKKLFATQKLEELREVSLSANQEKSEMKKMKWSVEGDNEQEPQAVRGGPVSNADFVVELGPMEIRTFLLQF
Experimental: as §3

U87 = test: MTT cell growth inhibition: U87; assay type: cell-based; settings: U87 glioblastoma; for inhibition at 25 µM / GI50: Homo sapiens, U-87 MG; for inhibition at 25 µM / Percentage (%) Cell Growth Inhibition in response to 25 µM of Drug: 72 h, MTT; for inhibition at 25 µM: read-out: Percentage (%) Cell Growth Inhibition in response to 25 µM of Drug; for GI50: read-out: GI50 = Concentration (µM) that inhibits cell growth by 50%, dose response
Experimental: All test agents were prepared as stock solutions (20 mM) in dimethyl sulfoxide (DMSO) and stored at −20 °C. Cell lines used in the study included HT29 (colorectal carcinoma); U87, SJ-G2, (glioblastoma); MCF-7, (breast carcinoma); A2780 (ovarian carcinoma); H460 (lung carcinoma); A431 (skin carcinoma); Du145 (prostate carcinoma); BE2-C (neuroblastoma); MiaPaCa-2 (pancreatic carcinoma); and SMA560 (spontaneous murine astrocytoma), together with the one non-tumour-derived normal breast cell line (MCF10A). All cell lines were incubated in a humidified atmosphere 5% CO2 at 37 °C. The cancer cell lines were maintained in Dulbecco’s modified Eagle’s medium (DMEM; Sigma, Australia) supplemented with foetal bovine serum (10%), sodium pyruvate (10 mM), penicillin (100 IUmL^−1), streptomycin (100 µg mL^−1) and L-glutamine (2 mM).
Growth inhibition was determined by plating cells in duplicate in medium (100 µL) at a density of 2500–4000 cells per well in 96-well plates. On day 0 (24 h after plating), when the cells were in logarithmic growth, medium (100 µL) with or without the test agent was added to each well. After 72 h drug exposure, growth inhibitory effects were evaluated using the MTT (3-(4,5-dimethyltiazol-2-yl)-2,5-diphenyltetrazolium bromide) assay and absorbance read at 540 nm. The percentage growth inhibition was calculated at a fixed concentration of 25 µM, based on the difference between the optical density values on day 0 and those at the end of drug exposure. Each data point is the mean ± the standard error of the mean (SEM) calculated from three replicates which were performed on separate occasions and separate cell line passages.

rice α-glucosidase = rice α-glucosidase (Oryza sativa subsp. japonica, UniProt Q653V7); test: Glycosidase inhibition, laboratory 1: rice α-glucosidase; assay type: biochemical; settings: methanol
rice α-glucosidase, sequence (Q653V7 34-885): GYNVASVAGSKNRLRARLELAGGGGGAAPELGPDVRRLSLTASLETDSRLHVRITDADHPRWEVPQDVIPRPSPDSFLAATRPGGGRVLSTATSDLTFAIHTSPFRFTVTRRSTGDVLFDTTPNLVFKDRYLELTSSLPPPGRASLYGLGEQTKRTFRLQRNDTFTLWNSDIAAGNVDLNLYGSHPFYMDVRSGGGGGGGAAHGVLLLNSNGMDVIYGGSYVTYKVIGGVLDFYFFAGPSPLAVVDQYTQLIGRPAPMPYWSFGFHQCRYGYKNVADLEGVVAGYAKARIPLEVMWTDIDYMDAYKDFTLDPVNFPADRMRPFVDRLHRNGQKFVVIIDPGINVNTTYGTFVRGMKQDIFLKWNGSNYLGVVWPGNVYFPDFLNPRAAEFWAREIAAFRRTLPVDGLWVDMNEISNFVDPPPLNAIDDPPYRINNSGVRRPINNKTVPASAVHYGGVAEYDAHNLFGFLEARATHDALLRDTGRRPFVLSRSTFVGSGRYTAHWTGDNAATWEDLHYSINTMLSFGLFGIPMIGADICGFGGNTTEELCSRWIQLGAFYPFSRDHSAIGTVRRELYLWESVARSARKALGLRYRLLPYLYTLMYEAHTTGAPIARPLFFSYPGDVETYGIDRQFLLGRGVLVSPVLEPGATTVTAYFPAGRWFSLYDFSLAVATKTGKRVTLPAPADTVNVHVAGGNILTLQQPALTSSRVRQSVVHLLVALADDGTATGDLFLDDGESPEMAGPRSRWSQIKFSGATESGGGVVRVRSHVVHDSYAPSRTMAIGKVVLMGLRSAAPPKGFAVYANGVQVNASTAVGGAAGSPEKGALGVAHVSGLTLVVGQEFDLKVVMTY

E. coli β-glucuronidase = target: T2, E. coli β-glucuronidase (Escherichia coli, UniProt P05804); test: Glycosidase inhibition, laboratory 1: E. coli β-glucuronidase; assay type: biochemical; settings: for inhibition at 10 µM: read-out: inhibition % at 10 μM; for inhibition at 100 µM: read-out: inhibition % at 100 μM
T2 construct: purchased Sigma-Aldrich Co
T2 sequence (P05804 whole entry): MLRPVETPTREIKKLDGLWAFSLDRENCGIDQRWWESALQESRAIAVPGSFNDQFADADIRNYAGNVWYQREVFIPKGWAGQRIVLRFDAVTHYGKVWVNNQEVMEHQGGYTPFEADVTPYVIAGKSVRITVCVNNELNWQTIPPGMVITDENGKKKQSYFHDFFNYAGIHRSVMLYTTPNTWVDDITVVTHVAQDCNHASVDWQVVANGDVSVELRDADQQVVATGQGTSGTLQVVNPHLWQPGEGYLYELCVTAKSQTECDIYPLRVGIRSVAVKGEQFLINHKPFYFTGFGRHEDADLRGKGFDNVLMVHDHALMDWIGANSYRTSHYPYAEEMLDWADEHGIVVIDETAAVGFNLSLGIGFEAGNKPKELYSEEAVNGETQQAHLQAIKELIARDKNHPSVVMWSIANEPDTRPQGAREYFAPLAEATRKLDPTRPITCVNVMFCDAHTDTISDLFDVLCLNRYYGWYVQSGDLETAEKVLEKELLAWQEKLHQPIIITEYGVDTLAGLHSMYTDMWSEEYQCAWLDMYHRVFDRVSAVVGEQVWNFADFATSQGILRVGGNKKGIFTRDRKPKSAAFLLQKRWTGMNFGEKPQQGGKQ
Excerpt: as §1, §2

[2] = E. coli β-glucuronidase, 100 μM, methanol

## N[C@@H](Cc1ccc(B(O)O)cc1)C(=O)O [BPA, 4-borono-L-phenylalanine, reference compound]
[1]
  inhibition % at 100 μM: ^cNI ^d (0%)
Bacillus α-glucosidase; 400 µM
  % inhibition at ~400 μM: 19.9%
Almond β-glucosidase; 400 µM
  % inhibition at ~400 μM: 3.9%
Jack bean α-mannosidase
  inhibition at 400 µM: 0.6%
U87
  inhibition at 25 µM: < 0%

## N[C@@H](Cc1ccc(B(O)O)cc1)C(=O)O [^10B-BPA, reference compound]
Rice α-glucosidase; 100 μM
  inhibition % at 100 μM: ^cNI ^d(0%)
[1]
  inhibition % at 100 μM: ^cNI ^d (0%)
E. coli β-glucuronidase; [2]
  inhibition % at 100 μM: ^cNI ^d (2.4%)
Bacillus α-glucosidase; 400 µM
  % inhibition at ~400 μM: 19.5%
Almond β-glucosidase; 400 µM
  % inhibition at ~400 μM: 3%
Jack bean α-mannosidase
  % inhibition at ~400 μM: −0.7%
U87
  Percentage (%) Cell Growth Inhibition in response to 25 µM of Drug: <0%

## CC1(C)OB(c2cccc(CN3C(=O)c4c(Cl)c(Cl)c(Cl)c(Cl)c4C3=O)c2)OC1(C)C [meta 3, 4,5,6,7-Tetrachloro-2-(3-(4,4,5,5-tetramethyl-1,3,2-dioxaborolan-2-yl)benzyl)isoindoline-1,3-dione]
Rice α-glucosidase
  inhibition at 10 µM: 5.1%
[1]
  inhibition % at 10 μM: ^cNI ^d (0%)
E. coli β-glucuronidase
  inhibition at 10 µM: 6.1%
Bacillus α-glucosidase
  % inhibition at ~400 μM: 31.7%
Almond β-glucosidase
  % inhibition at ~400 μM: 19.3%
Jack bean α-mannosidase
  inhibition at 400 µM: 30.3%
U87
  GI50: 19 ± 1.5 µM
  inhibition at 25 µM: 70 ± 8%

## CC1(C)OB(c2cccc(NC(=O)c3cc(Cl)c(Cl)c(Cl)c3Cl)c2)OC1(C)C [meta 5, 2,3,4,5-tetrachloro-N-(3-(4,4,5,5-tetramethyl-1,3,2-dioxaborolan-2-yl)phenyl)benzamide]
Rice α-glucosidase; 100 μM
  inhibition at 100 µM: 45.5%
[1]
  inhibition % at 100 μM: ^aNI ^b (2.2%)
E. coli β-glucuronidase; E. coli β-glucuronidase, methanol
  IC50: 932 µM
Bacillus α-glucosidase
  % inhibition at ~400 μM: 54.1%
Almond β-glucosidase
  % inhibition at ~400 μM: 18.7%
Jack bean α-mannosidase
  inhibition at 400 µM: 2.2%
U87
  inhibition at 25 µM: < 0%

## CC1(C)OB(c2ccccc2NC(=O)c2cc(Cl)c(Cl)c(Cl)c2Cl)OC1(C)C [ortho 5, 2,3,4,5-Tetrachloro-N-(2-(4,4,5,5-tetramethyl-1,3,2-dioxaborolan-2-yl)phenyl)benzamide]
Rice α-glucosidase
  inhibition at 10 µM: 0%
[1]
  inhibition % at 10 μM: ^cNI ^d (0%)
E. coli β-glucuronidase; E. coli β-glucuronidase, 10 μM, methanol
  inhibition at 10 µM: 3.8%
Bacillus α-glucosidase
  % inhibition at ~400 μM: 14.4%
Almond β-glucosidase
  % inhibition at ~400 μM: 21%
Jack bean α-mannosidase
  inhibition at 400 µM: 0%
U87
  GI50: 25 ± 2.6 µM
  inhibition at 25 µM: 58 ± 5%

## CC1(C)OB(c2ccccc2CNC(=O)c2cc(Cl)c(Cl)c(Cl)c2Cl)OC1(C)C [ortho 8, 2,3,4,5-tetrachloro-N-(2-(4,4,5,5-tetramethyl-1,3,2-dioxaborolan-2-yl)benzyl)benzamide]
Rice α-glucosidase; 100 μM
  inhibition at 100 µM: 0%
[1]
  inhibition % at 100 μM: ^aNI ^b (6.2%)
E. coli β-glucuronidase
  inhibition at 100 µM: 41.7%
Bacillus α-glucosidase
  % inhibition at ~400 μM: 23.7%
Almond β-glucosidase
  % inhibition at ~400 μM: 83.4%
Jack bean α-mannosidase
  inhibition at 400 µM: -6.1%
U87
  inhibition at 25 µM: < 0%

## CC1(C)OB(c2ccc(CN3C(=O)c4c(Cl)c(Cl)c(Cl)c(Cl)c4C3=O)cc2)OC1(C)C [para 3, 4,5,6,7-Tetrachloro-2-(4-(4,4,5,5-tetramethyl-1,3,2-dioxaborolan-2-yl)benzyl)isoindoline-1,3-dione]
Rice α-glucosidase; 100 μM
  inhibition at 100 µM: 5.6%
[1]
  inhibition % at 100 μM: ^aNI ^b (0%)
E. coli β-glucuronidase
  inhibition at 100 µM: 2.2%
Bacillus α-glucosidase
  % inhibition at ~400 μM: 17.9%
Almond β-glucosidase
  % inhibition at ~400 μM: 15.4%
Jack bean α-mannosidase
  inhibition at 400 µM: 16.5%
U87
  GI50: 4.2 ± 1 µM
  inhibition at 25 µM: > 100%

## CC1(C)OB(c2ccc(NC(=O)c3cc(Cl)c(Cl)c(Cl)c3Cl)cc2)OC1(C)C [para 5, 2,3,4,5-tetrachloro-N-(4-(4,4,5,5-tetramethyl-1,3,2-dioxaborolan-2-yl)phenyl)benzamide]
Rice α-glucosidase; 100 μM
  inhibition at 100 µM: 0%
[1]
  inhibition % at 100 μM: ^aNI ^b (14.4%)
E. coli β-glucuronidase; [2]
  inhibition at 100 µM: 45.5%
Bacillus α-glucosidase
  % inhibition at ~400 μM: 20%
Almond β-glucosidase
  % inhibition at ~400 μM: 11.3%
Jack bean α-mannosidase
  inhibition at 400 µM: -8.2%
U87
  inhibition at 25 µM: 21 ± 16%

## Borocaptate sodium [BSH, reference compound]
Rice α-glucosidase; 1000 μM
  inhibition % at 1000 μM: ^aNI ^b(0%)
[1]; 1000 μM
  inhibition % at 1000 μM: ^aNI ^b (0.2%)
E. coli β-glucuronidase; E. coli β-glucuronidase, 1000 μM, methanol
  inhibition % at 1000 μM: ^aNI ^b (6%)
Bacillus α-glucosidase
  % inhibition at ~400 μM: 48.1%
Almond β-glucosidase
  % inhibition at ~400 μM: 47.3%
Jack bean α-mannosidase
  % inhibition at ~400 μM: −18.7%
U87
  Percentage (%) Cell Growth Inhibition in response to 25 µM of Drug: <0%
